# Results taken from patent US20190358201A1 (NantCell, Inc., priority 2018, published 2019).
# Assays:
# [1] = Sensitivity and worst-case sensitivity analysis of PFS, aldoxorubicin vs doxorubicin (ITT population, independent assessment); assay type: in vivo, human; conditions: for PFS Events: 42 doxorubicin / 84 aldoxorubicin patients; for HR (95% CI): stratified Cox regression
# Experimental: Sensitivity Analysis: To assess the impact of censoring the 8 patients with no baseline imaging at the date of randomization, a sensitivity analysis was conducted where a PFS event was imputed at the date of randomization. This analysis is presented in Table 1 showing the sensitivity analysis of PFS (ITT Population^a).
# (§1) PFS is defined as the time from randomization to the date of first objective documentation of disease progression or death (any cause), whichever comes first. CI=Confidence interval; ECOG=Eastern Cooperative Oncology Group; HR=Hazard ratio; PFS=Progression-free survival; PS=Performance status. ^a The ITT Population comprised all randomized patients. ^bP-value is from stratified log-rank test with ECOG PS (0 to 1, 2) and chemotherapy (no prior chemotherapy or prior adjuvant/neoadjuvant chemotherapy) as stratification factors. Hazard ratio and 95% CI are from a Cox regression model stratified by ECOG PS (0 1, 2) and chemotherapy (no prior chemotherapy or prior adjuvant/neoadjuvant chemotherapy).
# This analysis is presented in Table 2 (Worst-Case Sensitivity Analysis of PFS (ITT population^a)).
# as §1, with “status. ^aThe” for “status. ^a The”, “randomized patients.^b P-value” for “randomized patients. ^bP-value”, “is based on a” for “is from”
# [2] = LVEF changes, Phase 2 study (INNO-206-P2-STS-01); assay type: in vivo, human; conditions: for Subjects with LVEF < 50% at any post-baseline cycle / Subjects with a 10% fall in LVEF: Phase 2, doxorubicin median 4 cycles of 75 mg/m^2 (N 40), aldoxorubicin median 6 cycles of 350 mg/m^2 (N 83)
# [3] = LVEF changes, Phase 3 study (P3-STS-01); assay type: in vivo, human
# [4] = cited from earlier work
# [5] = Alopecia induction in patients; assay type: in vivo, human; conditions: aldoxorubicin administered instead of doxorubicin
# soft tissue sarcoma = conditions: vs investigator's choice, entire study population; p=0.12, 95% CI 0.64-1.06; cited from earlier work
# [6] = Cardiac function by 2D echocardiogram in patients treated for at least 6 cycles of aldoxorubicin (Phase 1/2 with ifosfamide/mesna and Phase 3 alone); assay type: in vivo, human
# Experimental: Fifty-two patients enrolled in a Phase 1/2 study of aldoxorubicin and ifosfamide/mesna and a Phase 3 study using aldoxorubicin alone were treated for at least 6 cycles of aldoxorubicin at either 250 mg/m^2 or 350 mg/m^2 per dose i. v. every 3 weeks. Cardiac function using 2D echocardiogram was evaluated at regular intervals every two cycles of aldoxorubicin until end of treatment and every six months after completion of the treatment.
# After treatment, the cumulative aldoxorubicin dose for these patients ranged from […] to 7,500 mg/m^2. […] Ventricular ejection fractions ranged from 45-74% baseline, and 50-77% at end of treatment, median being 60% both at the beginning and end of treatment. Therefore, it should be appreciated that aldoxorubicin lacks cardiotoxicity in these patients treated with aldoxorubicin, alone or in combination with ifosfamide/mesna.
# [7] = Formation of doxorubicinol metabolite and pharmacokinetics after administration; conditions: after administration to patients
# [8] = Tolerability of higher total cumulative doses of aldoxorubicin in patients; assay type: in vivo, human
# Experimental: Based on the results above, the inventors investigated whether even higher total cumulative doses of aldoxorubicin could be tolerated. To that end, patients were administered total cumulative dosages of up to 3,000 mg/m^2, up to 4,000 mg/m^2, up to 5,000 mg/m^2, up to 6,000 mg/m^2, up to 7,000 mg/m^2, up to 8,000 mg/m^2, up to 9,000 mg/m^2, up to 10,000 mg/m^2, up to 11,000 mg/m^2, up to 12,000 mg/m^2, up to 13,000 mg/m^2, up to 14,000 mg/m^2, and even higher. […] As described herein, cardiotoxicity may be monitored by monitoring the level of metabolite doxorubicinol in the cardiac cells. Suitable cumulative dosages of aldoxorubicin include those that will not adversely affect LVEF. As such, LVEF of patients receiving aldoxorubicin will typically be in the range of 55% to 70%. Thus, in some embodiments, the patients may have LVEF of 55%-60%, or 60%-65%, or 65%-70%. Less preferably, aldoxorubicin may be administered to the patient until reaching a slightly lower than normal LVEF, say between 50%-54%, or 45%-50%, or 40%-45%.
# [9] = sensitivity analysis of PFS, text to Table 1 / FIG. 2
# [10] = sensitivity analysis, PFS event imputed at randomization for 8 patients without baseline imaging, ITT, independent assessment
# [11] = sensitivity analysis, ITT, independent assessment
# [12] = worst-case sensitivity analysis, PFS event imputed at date of censoring, ITT
# [13] = worst-case sensitivity analysis, ITT, independent assessment
# [14] = Phase 3, doxorubicin N 47, aldoxorubicin N 213
compound,measurement,setting,value
"COc1cccc2c1C(=O)c1c(O)c3c(c(O)c1C2=O)C[C@@](O)(C(=O)CO)C[C@@H]3O[C@H]1C[C@H](N)[C@H](O)[C@H](C)O1 [Doxorubicin, reference compound]",Median PFS,[1]; [9],83 days
same,PFS Events,[1]; [10],29
same,Median PFS,[1]; [11],82.0 days
same,PFS Events,[1]; [12],42
same,Median PFS,[1]; [13],48.0 days
same,Subjects with LVEF < 50% at any post-baseline cycle,[2],3 (8.6) n (%)
same,Subjects with a 10% fall in LVEF,[2],10 (29.4) n (%)
same,Subjects with LVEF below 50% of any post-baseline visit,[3]; [14],9 (19.1) n (%)
same,Allowable maximum cumulative lifetime dose,[4]; limit set in view of cardiotoxicity,550 mg/m^2
"COc1cccc2c1C(=O)c1c(O)c3c(c(O)c1C2=O)C[C@@](O)(/C(CO)=N/NC(=O)CCCCCN1C(=O)C=CC1=O)C[C@@H]3O[C@H]1C[C@H](N)[C@H](O)[C@H](C)O1 [Aldoxorubicin, (6-maleimidocaproyl) hydrazone derivative of doxorubicin]",Median PFS,[1]; [9],170 days
same,HR as stated in text,"[1]; sensitivity analysis of PFS, aldoxorubicin vs doxorubicin, p=0.032, 95% CI [0.38, 0.95]",0.60
same,HR (95% CI),"[1]; sensitivity analysis of PFS, aldoxorubicin vs doxorubicin","0.60 (0.38, 0.95)"
same,PFS Events,[1]; [10],52
same,Median PFS,[1]; [11],132.0 days
same,HR (95% CI),"[1]; worst-case sensitivity analysis of PFS, aldoxorubicin vs doxorubicin","0.63 (0.43, 0.93)"
same,PFS Events,[1]; [12],84
same,Median PFS,[1]; [13],88.5 days
same,Alopecia induction,[5],minimal alopecia induction
same,Decreases in LVEF (MUGA or echocardiogram),"[2]; Phase 2, aldoxorubicin treatment group",no clinically relevant decreases in LVEF were observed
same,Subjects with LVEF < 50% at any post-baseline cycle,[2],0 n (%)
same,Subjects with a 10% fall in LVEF,[2],9 (12.2) n (%)
same,PFS hazard ratio (HR),soft tissue sarcoma,0.81
same,"Ventricular ejection fraction, median",[6]; both at the beginning and end of treatment,60%
same,Clinical congestive heart failure,"[6]; eleven patients with prior doxorubicin, cumulative aldoxorubicin dose 1,000 to 7,500 mg/m^2",no patient developed any sign or symptom of clinical congestive heart failure
same,Ventricular ejection fraction at end of treatment (range),"[6]; end of treatment, baseline range 45-74%",50-77%
same,Cardiac toxicity,"[6]; up to doxorubicin equivalent doses of 7,500 mg/m^2, alone or with ifosfamide/mesna",did not find any evidence of cardiac toxicity
same,Formation of doxorubicinol,[7],no detectable doxorubicinol
same,Formation of doxorubicinol,[7]; listed as doxorubicin after modification with N-c-maleimidocaproic acid hydrazide,did not lead to significant quantities of doxorubicinol
same,Cardiotoxicity,"[3]; Phase 3, 350 mg/m^2/cycle, up to 40 cycles, as compared to doxorubicin",minimal or no cardiotoxicity
same,Subjects with LVEF below 50% of any post-baseline visit,[3]; [14],15 (7) n (%)
same,Subjects with ≥ 20% LVEF decrease from baseline at any post-baseline visit,[3]; [14],9 (4.2) n (%)
same,Recommended doxorubicin equivalent dose,"[4]; Clin Cancer Res 2007, 13(16)",260 mg/m^2
same,Cardiotoxicity,[8]; cumulative dose equivalent to doxorubicin significantly more than 10× 550 mg/m^2,no or substantially reduced cardiotoxicity
same,Cardiotoxicity,"[8]; patients, doxorubicin equivalent doses even beyond 3000 mg/m^2",no cardiotoxicity was observed
same,"Tolerability, cardiotoxicity and/or LVEF","[8]; total cumulative doses of 14,000 mg/m^2",tolerated without any significant effect on cardiotoxicity and/or LVEF
